In patent US9931629B2, “Substance exposure apparatus” (The University of Queensland, priority 2011, dated 2018):
“Also recorded” adds a separate entry of the source.

Tests used:
Assay type in all cases: cell-based, human
HES3-MIXL1-GFP hESCs [1] = assay: Primitive streak array screening of CHIR99021, conditioned medium and IWP-4 (MIXL1-GFP reporter); conditions: background RPMI B27 with 10 ng/mL BMP-4 and 6 ng/mL Activin A, continuous flow
Procedure: For use in apparatus 300, conditioned medium was recovered from static controls differentiated in 10 ng/mL BMP-4 and 6 ng/mL Activin A in RPMI B27 medium. Cells were removed by centrifugation and supernatant medium stored at 4° C. Media from days 1 and 2 were mixed and BMP-4 and Activin A re-supplemented at 50% of nominal levels before use in arrays.

HES3-MIXL1-GFP hESCs [2] = assay: Static primitive streak induction cultures with chemical modulation of Wnt signals
Procedure: HES3-MIXL1-GFP hESCs maintained in mTeSR-1/Matrigel cultures were detached with TrypLE Express, seeded at 7.5×10^4 cells/cm^2 into 24-well plates coated with a limiting dilution of hESC-qualified Matrigel and allowed to attach overnight, after which cultures were typically ˜60% confluent. MIXL1-GFP expression was then induced by differentiating in RPMI B27 medium with 10 ng/ml BMP-4 and 6 ng/ml Activin A (both R&D Systems) for 2.5 d with optional addition of 5 μM IWP-4 and 5 μM CHIR99021 (both Stemgent), or 0.1% v/v DMSO vehicle control.
Although such paracrine factor dependencies and negative feedback signals regulating mesendoderm specification are clearly necessary developmental drivers in a transient in vivo structure such as primitive streak, they inevitably reduce efficiency of in vitro differentiation. It was therefore tested whether the outcomes of modulating positive and negative paracrine regulators in the array could be translated to optimise directed differentiation protocols in conventional static cultures.

HES3-MIXL1-GFP hESCs [3] = assay: Primitive streak differentiation screening in array of BIO, BMP-4 and Activin A (MIXL1-GFP reporter)
Procedure: Cells were allowed to attach to the well array 330 for 8-10 h in an incubator (37° C., 5% CO2 in air), then subjected to continuous fluid flow under the specified factor conditions at 60 μL/h total flowrate.
Serial exchange of staining and washing solutions was driven by a syringe pump.
Spot intensities in each channel were linearly transformed about the mean and standard deviation for all spots in that channel in an individual array, by IEOS-GFP=(TEOS-GFP−μEOS-GFP)/σEOS-GFP, where IEOS-GFP is the expression index of EOS-GFP, and μEOS-GFP is the mean and σEOS-GFP the standard deviation of all TEOS-GFP for a particular array. This provides expression indices (IEOS-GFP, IMIXL1-GFP) rating each spot's intensity in terms of global standard deviations relative to the global mean.
Factorial analyses are performed on expression index data with MINITAB 15 software (Minitab Inc.). Expression indices were designated as response variables and soluble factors designated as inputs. A fourth input variable, ‘Position’, was defined based on each culture well's row coordinate in the array. Effect magnitudes were then generated by MINITAB according to methods described elsewhere^45. Pearson product-moment correlation coefficients (rX,Y), coefficients of determination for linear regression (R^2), and Student's t-test statistics were calculated with Microsoft Excel. For Student's t-tests, two-tailed tests were performed for two samples assuming unequal variances, and differences with p<0.05 were considered significant.
HES3-MIXL1-GFP hESCs (also, HES3 MIXL1^GFP/w hESCs; karyotying and in vivo teratomas) growing as a monolayer were differentiated under continual flow in the apparatus 300 for 2.5 d in a full-factorial array of BMP-4, Activin A, and the GSK-3β inhibitor/canonical Wnt activator 6-bromoindirubin-3′-oxime (BIO) in RPMI B27 medium. A screening panel showing array conditions is shown in FIG. 6A, with numbers indicating concentrations of BIO (μM), BMP-4 (ng/mL) and Activin A (ng/mL).

[4] = 2.5 d, continual flow, RPMI B27 medium

Cc1c[nH]c(-c2cnc(NCCNc3ccc(C#N)cn3)nc2-c2ccc(Cl)cc2Cl)n1 [CHIR99021]
effect on MIXL1-GFP expression level and position in the array (HES3-MIXL1-GFP hESCs [1]): only shifted expression up marginally; also recorded: produced an extended streak of MIXL1-GFP expression | effect on MIXL1-GFP expression level and position in the array (HES3-MIXL1-GFP hESCs [1]; listed as CHIR): both improved the expression level and broadened the number of rows over which appreciable expression extended | MIXL1-GFP induction, % of cells (HES3-MIXL1-GFP hESCs [2]; 5 μM CHIR99021 added to RPMI B27+10 ng/mL BMP-4+6 ng/mL Activin A, 2.5 d, 51% under standard conditions): 86%

O=C1Nc2cc(Br)ccc2/C1=C1/Nc2ccccc2/C1=N\O [BIO, 6-bromoindirubin-3′-oxime]
optimum concentration for expression index IMIXL1-GFP (factorial analysis) (HES3-MIXL1-GFP hESCs [3]; 2.5 d, continual flow, RPMI B27 medium, levels 0, 1, 2 μM): 1 µM | number of rows over which bright MIXL1-GFP expression extended (HES3-MIXL1-GFP hESCs [3]; column 15: 1 μM BIO with 10 ng/mL BMP-4, 6 ng/mL Activin A, single peak at row 7 without BIO): 4-5 rows

COc1ccccc1-n1c(SCC(=O)Nc2nc3ccc(C)cc3s2)nc2c(c1=O)SCC2 [IWP-4]
MIXL1 induction (HES3-MIXL1-GFP hESCs [2]; static controls, FIG. 7H, 5 μM IWP-4): completely blocked MIXL1 induction

B1: Activin A: soluble growth factor (R&D Systems) used for primitive streak induction (protein, UniProt P08476 311-426, looked up)
Inhibin beta A chain: GLECDGKVNICCKKQFFVSFKDIGWNDWIIAPSGYHANYCEGECPSHIAGTSGSSLSFHSTVINHYRMRGHSPFANLKSCCVPTKLRPMSMLYYDDGQNIIKKDIQNMIVEECGCS
dependence of expression index IMIXL1-GFP on factor (factorial analysis) (HES3-MIXL1-GFP hESCs [3]; [4]): linear, positive dependence

B2: BMP-4: soluble growth factor (R&D Systems) used for primitive streak induction (protein, UniProt P12644 293-408, looked up)
Bone morphogenetic protein 4: SPKHHSQRARKKNKNCRRHSLYVDFSDVGWNDWIVAPPGYQAFYCHGDCPFPLADHLNSTNHAIVQTLVNSVNSSIPKACCVPTELSAISMLYLDEYDKVVLKNYQEMVVEGCGCR
optimum concentration for expression index IMIXL1-GFP (factorial analysis) (HES3-MIXL1-GFP hESCs [3]; [4]): 10 ng/mL
